The text below walks through data of US20060148858A1, “1, 2-Azole derivatives with hypoglycemic and hypolipidemic activity” (priority 2002, published 2006).

One series addresses T1, PPARγ-RXRα heterodimer (Homo sapiens, UniProt P37231).
T1 construct: expressed in transfected cells; host or cells: CHO-K1
T1 sequence (P37231 1-477 isoform P37231-2): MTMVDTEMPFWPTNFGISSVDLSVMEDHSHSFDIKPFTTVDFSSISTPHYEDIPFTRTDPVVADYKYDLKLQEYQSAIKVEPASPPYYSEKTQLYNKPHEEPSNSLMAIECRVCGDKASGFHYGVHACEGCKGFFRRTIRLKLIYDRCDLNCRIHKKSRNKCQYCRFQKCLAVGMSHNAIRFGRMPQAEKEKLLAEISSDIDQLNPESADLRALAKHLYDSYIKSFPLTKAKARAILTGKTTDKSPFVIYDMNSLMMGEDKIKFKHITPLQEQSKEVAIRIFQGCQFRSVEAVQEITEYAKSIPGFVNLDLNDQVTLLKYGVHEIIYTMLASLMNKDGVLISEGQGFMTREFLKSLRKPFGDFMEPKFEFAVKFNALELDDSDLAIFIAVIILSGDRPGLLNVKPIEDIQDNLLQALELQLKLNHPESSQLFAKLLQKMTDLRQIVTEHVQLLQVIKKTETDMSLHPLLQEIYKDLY
T1 sequence (P19793 1-462 partner): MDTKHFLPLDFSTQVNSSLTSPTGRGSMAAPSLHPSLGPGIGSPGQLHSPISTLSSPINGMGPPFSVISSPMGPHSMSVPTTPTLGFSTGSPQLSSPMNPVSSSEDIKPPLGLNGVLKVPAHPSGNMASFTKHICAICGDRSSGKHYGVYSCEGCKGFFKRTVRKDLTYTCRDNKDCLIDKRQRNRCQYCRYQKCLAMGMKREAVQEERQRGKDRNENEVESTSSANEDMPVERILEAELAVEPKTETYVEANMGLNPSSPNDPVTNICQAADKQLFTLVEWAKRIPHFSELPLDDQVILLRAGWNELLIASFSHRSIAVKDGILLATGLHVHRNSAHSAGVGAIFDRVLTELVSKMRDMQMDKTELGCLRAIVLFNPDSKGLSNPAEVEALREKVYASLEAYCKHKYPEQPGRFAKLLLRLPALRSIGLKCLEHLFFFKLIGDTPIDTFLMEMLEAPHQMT
As to the kind of experiment: PPARγ-RXRα heterodimer ligand activity, luciferase reporter in PPARγ:RXRα:4ERPP/CHO-K1 cells (Test Example 3). The class given is cell-based. The settings on record: 18-48 hours, concentration for 50% of the maximum fold induction. Here is the method: A PPARγ: RXRα: 4ERPP/CHO-K1 cells obtained in Reference Example 8a described later were cultured in HAM F12 medium (produced by Life Technologies, Inc., USA) containing 10% Fetal bovine serum (produced by Life Technologies, Inc., USA) and then inoculated to a 96-well white plate (produced by Corning Costar Corporation, USA) at the density of 2×10^4 cells/well, and cultured in a CO2 gas incubator at 37° C. overnight.
After removing the medium from 96 well white plate, 80 μl of HAM F12 medium containing 0.1% fatty acid-free bovine serum albumin (BSA) and 20 μl of test compound were added, which was cultured in a CO2 gas incubator at 37° C. for 18-48 hours. After removing the medium, 40 μl of PIKKAGENE 7.5 (produced by Wako Pure Chemical Industries, Ltd.) diluted twice with HBSS (HANKS' BALANCED SALT SOLUTION)(produced by BIO WHITTAKER Inc., USA), was added. After stirring, the luciferase activity was determined using 1420 ARVO Multilabel Counter (produced by PerkinElmer Inc., USA).
A fold induction was calculated based on the luciferase activity of each test compound by taking the luciferase activity in the non-treatment group as 1. The values of the test compound concentration and the fold induction were analyzed using PRISM (produced by GraphPad Software Inc. USA) to calculate the EC50 values, the effective concentration of a test compound for 50% of the maximum fold induction.
After a CHO-K1 cell cultured in a 150 cm^2 cell culture flask (750 ml)(produced by Corning Costar Corporation, USA) containing HAM F12 medium (produced by Life Technologies, Inc., USA) supplemented with 10% Fetal Bovine Serum (produced by Life Technologies, Inc., USA) was scraped by treating with 0.5 g/L trypsin-0.2 g/L EDTA (ethylenediaminetetraacetic acid) (produced by Life Technologies, Inc., USA), the cell was washed with PBS (phosphate-buffered saline) (produced by Life Technologies, Inc., USA), centrifuged (1000 rpm, 5 minutes), and then suspended in PBS. Subsequently, a DNA was introduced into the cell under the condition shown below using GENE PULSER (produced by Bio-Rad Laboratories, USA).
Namely, to a cuvette having a 0.4 cm gap, added were 8×10^6 cells and 10 μg of plasmid pVgRXR2-hPPARγ obtained in Reference Example 7a and 10 μg of reporter plasmid pGL3-4ERPP-TK neo obtained in Reference Example 5a, which was subjected to electroporation at the voltage of 0.25 kV under the capacitance of 960 μF. Subsequently, the cell was transferred into a HAM F12 medium containing 10% Fetal Bovine Serum and cultured for 24 hours and then the cell was scraped again and centrifuged, and then suspended in HAM F12 medium containing 10% Fetal Bovine Serum supplemented with 500 μg/ml of GENETICIN (produced by Life Technologies, Inc., USA) and 250 μg/ml of ZEOCIN (produced by Invitrogen, USA). The obtained suspension was diluted to the density of 10^4 cells/ml and inoculated to a 96-well plate (produced by Corning Costar Corporation, USA), which was cultured in a CO2 gas incubator at 37° C., whereby obtaining a GENETICIN- and ZEOCIN-resistant transformant.
Subsequently, after the transformant cell line thus obtained was cultured in a 24-well plate (produced by Corning Costar Corporation, USA), selected was a cell line in which the luciferase was expressed and induced, i.e., PPARγ:RXRα:4ERPP/CHO-K1 cell by addition of 10 μM of pioglitazone hydrochloride.

In another series the target is T2, PPARδ-RXRα heterodimer (Homo sapiens, UniProt Q03181).
T2 construct: expressed in transfected cells; host or cells: COS-1
T2 sequence (Q03181 1-441): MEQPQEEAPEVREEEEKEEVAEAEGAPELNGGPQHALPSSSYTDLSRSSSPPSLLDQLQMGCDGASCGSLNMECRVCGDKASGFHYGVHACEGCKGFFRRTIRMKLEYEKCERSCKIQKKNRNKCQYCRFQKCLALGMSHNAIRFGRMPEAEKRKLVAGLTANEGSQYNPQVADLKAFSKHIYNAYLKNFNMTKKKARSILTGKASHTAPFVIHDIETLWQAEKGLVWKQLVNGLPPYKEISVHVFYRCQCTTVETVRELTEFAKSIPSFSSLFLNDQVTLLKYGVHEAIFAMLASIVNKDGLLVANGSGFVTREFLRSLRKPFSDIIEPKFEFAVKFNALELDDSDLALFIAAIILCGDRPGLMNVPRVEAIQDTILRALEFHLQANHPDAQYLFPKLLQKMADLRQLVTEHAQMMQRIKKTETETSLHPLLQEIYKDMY
T2 sequence (P19793 1-462 partner): T1 sequence (P19793 1-462 partner)
Description: PPARδ-RXRα heterodimer ligand activity, luciferase reporter in COS-1 transformant (Test Example 4). The settings on record: COS-1 transformant (hPPARδ, hRXRα, reporter), 36-48 hours, concentration for 50% of the maximum fold induction. The class given is cell-based. An outline of the steps:
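COS-1 cells transiently co-transfected with human PPARδ, human RXRα, PPRE-luciferase reporter and pRL-tk, then exposed to compound 36-48 h at 37 °C in DMEM with 0.1% fatty acid-free BSA. Luciferase read as fold induction over untreated; EC50 at 50% of maximal fold induction.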
Background: In a reporter assay the amount or activity of a reporter protein is the signal.

pEC50: −log10 of the molar value.

On PPARγ-RXRα heterodimer, `COc1cccc(CC(=O)O)c1OCCCc1cn(-c2ccc(C#N)cn2)nc1C(C)C` [Example 271, (2-{3-[1-(5-cyano-2-pyridyl)-3-isopropyl-1H-pyrazol-4-yl]propoxy}-3-methoxyphenyl)acetic acid] showed a negative logarithm of the EC50 (pEC50) of 7.52.
`CCOc1cccc(CC(=O)O)c1OCCCc1cn(-c2ccc(C(F)(F)F)cn2)nc1C1CCCCC1` [Example 306, [2-(3-{3-cyclohexyl-1-[5-(trifluoromethyl)-2-pyridinyl]-1H-pyrazol-4-yl}propoxy)-3-ethoxyphenyl]acetic acid] registered a melting point of 156 to 157 °C. In addition, the pEC50 on PPARγ-RXRα heterodimer is 7.77.
As to `COc1cccc(CC(=O)O)c1OCCCc1cn(-c2ccc(C(F)(F)F)cn2)nc1C1CCCCC1` [Example 307, [2-(3-{3-cyclohexyl-1-[5-(trifluoromethyl)-2-pyridinyl]-1H-pyrazol-4-yl}propoxy)-3-methoxyphenyl]acetic acid], the melting point is 140 to 141 °C. In addition, the negative logarithm of the EC50 (pEC50) at PPARγ-RXRα heterodimer was 7.64.
On the same counts, the results for `CCCCc1nn(-c2ccc(C(F)(F)F)cn2)cc1CCCOc1nn(CC)cc1CC(=O)O` [Example 334, [3-(3-{3-butyl-1-[5-(trifluoromethyl)-2-pyridinyl]-1H-pyrazol-4-yl}propoxy)-1-ethyl-1H-pyrazol-4-yl]acetic acid] are 109 to 110 °C and 7.13.
Taken in the same sequence, the figures for `CCCCc1nn(-c2ccc(C(F)(F)F)cn2)cc1CCCOc1ccccc1CC(=O)O` [Example 198, [2-(3-{3-butyl-1-[5-(trifluoromethyl)-2-pyridyl]-1H-pyrazol-4-yl}propoxy)phenyl]acetic acid] were 106 to 107 °C and 7.52.
On the same counts, the results for `COc1ccc(-n2cc(CCCOc3c(CC(=O)O)cccc3OC)c(C(C)C)n2)nn1` [Example 277, (3-methoxy-2-{3-[1-(6-methoxypyridazin-3-yl)-3-isopropyl-1H-pyrazol-4-yl]propoxy}phenyl)acetic acid] are 124 to 125 °C and 7.44.
`COc1cccc(CC(=O)O)c1OCCCc1cn(-c2ccc(C(F)(F)F)cn2)nc1-c1ccccc1` [Example 196] gave a melting point of 134 to 135 °C. This compound also had a negative logarithm of the EC50 (pEC50) on PPARγ-RXRα heterodimer of 7.38.
On the same counts, the results for `COc1cccc(CC(=O)O)c1OCCCc1cn(-c2ccc(F)cn2)nc1C(C)C` [Example 273, (2-{3-[1-(5-fluoro-2-pyridyl)-3-isopropyl-1H-pyrazol-4-yl]propoxy}-3-methoxyphenyl)acetic acid] are 125 to 126 °C and 7.05.
Taken in the same sequence, the figures for `COc1cccc(CC(=O)O)c1OCCCc1cn(-c2ccc([N+](=O)[O-])cn2)nc1C(C)C` [Example 270, (3-methoxy-2-{3-[3-isopropyl-1-(5-nitro-2-pyridyl)-1H-pyrazol-4-yl]propoxy}phenyl)acetic acid] were 161 to 162 °C and 7.00.
Compound `O=C(O)Cc1cccc(OCCCc2cn(-c3ccc(C(F)(F)F)cn3)nc2-c2ccccc2)c1` [Example 124, [3-(3-{3-phenyl-1-[5-(trifluoromethyl)-2-pyridyl]-1H-pyrazol-4-yl}propoxy)phenyl]acetic acid] had a melting point of 132 to 133 °C. This compound had a negative logarithm of the EC50 (pEC50) at PPARδ-RXRα heterodimer of 8.62.
On the same counts, the results for `CCCc1nn(-c2ccc(C(F)(F)F)cn2)cc1CCCOc1cc(CCC(=O)O)cc(OC)c1` [Example 92, 3-[3-methoxy-5-(3-{3-propyl-1-[5-(trifluoromethyl)-2-pyridyl]-1H-pyrazol-4-yl}propoxy)phenyl]propionic acid] are 98 to 99 °C and 8.72.
Taken in the same sequence, the figures for `COc1cc(CCC(=O)O)ccc1OCCCc1cn(-c2ccc(C(F)(F)F)cn2)nc1C` [Example 129, 3-[3-methoxy-4-(3-{3-methyl-1-[5-(trifluoromethyl)-2-pyridyl]-1H-pyrazol-4-yl}propoxy)phenyl]propionic acid] were 136 to 137 °C and 8.31.
`CCCc1nn(-c2ccc(C(F)(F)F)cn2)cc1CCCCOc1cc(CC(=O)O)ccc1OC` [Example 63, [4-methoxy-3-(4-{3-propyl-1-[5-(trifluoromethyl)-2-pyridinyl]-1H-pyrazol-4-yl}butoxy)phenyl]acetic acid] came in with a melting point of 147 to 148 °C. For the same compound, the negative-log EC50 (pEC50) on PPARδ-RXRα heterodimer is 8.02.
Taken in the same sequence, the figures for `CCOc1nn(-c2ccc(C(F)(F)F)cn2)cc1CCCOc1cc(CC(=O)O)cc(OC)c1` [Example 168, [5-(3-{3-ethoxy-1-[5-(trifluoromethyl)-2-pyridyl]-1H-pyrazol-4-yl}propoxy)-3-methoxyphenyl]acetic acid] were 125 to 126 °C and 8.80.
On the same counts, the results for `CCOc1nn(-c2ccc(C(F)(F)F)cn2)cc1CCCOc1cccc(CC(=O)O)c1F` [Example 186, [3-(3-{3-ethoxy-1-[5-(trifluoromethyl)-2-pyridyl]-1H-pyrazol-4-yl}propoxy)-2-fluorophenyl]acetic acid] are 120 to 121 °C and 8.72.

What is called pEC50 is the negative decadic logarithm of the EC50, by convention in mol/L. Low values mean a high EC50, high ones a low EC50. A word on the melting point: it is the temperature of the solid-liquid transition.
